# Experiments:
# Experiment in all cases: KINOMEscan competition binding
# Settings in all cases: compound 10.0 µM
# EPHB2 (human) = EPHB2 (human) (UniProt P29323)
# SRC (human) = SRC (human) (UniProt P12931)
# PRKX (human) = PRKX (human) (UniProt P51817)
# MYLK4 (human) = MYLK4 (human) (UniProt Q86YV6)
# AAK1 (human) = AAK1 (human) (UniProt Q2M2I8)
# RPS6KA1 KD1 (human) = RPS6KA1 KD1 (human) (UniProt Q15418)
# [1] = system: KIT (human), P10721 [V559D/V654A]
# MAPK10 (human) = MAPK10 (human) (UniProt P53779)
# BMPR1A (human) = BMPR1A (human) (UniProt P36894)
# EGFR (human) = EGFR (human) (UniProt P00533)
# PIP5K1A (human) = PIP5K1A (human) (UniProt Q99755)
# MAP2K2 (human) = MAP2K2 (human) (UniProt P36507)
# Chain of MAP2K2 (human) (P36507 whole entry, looked up): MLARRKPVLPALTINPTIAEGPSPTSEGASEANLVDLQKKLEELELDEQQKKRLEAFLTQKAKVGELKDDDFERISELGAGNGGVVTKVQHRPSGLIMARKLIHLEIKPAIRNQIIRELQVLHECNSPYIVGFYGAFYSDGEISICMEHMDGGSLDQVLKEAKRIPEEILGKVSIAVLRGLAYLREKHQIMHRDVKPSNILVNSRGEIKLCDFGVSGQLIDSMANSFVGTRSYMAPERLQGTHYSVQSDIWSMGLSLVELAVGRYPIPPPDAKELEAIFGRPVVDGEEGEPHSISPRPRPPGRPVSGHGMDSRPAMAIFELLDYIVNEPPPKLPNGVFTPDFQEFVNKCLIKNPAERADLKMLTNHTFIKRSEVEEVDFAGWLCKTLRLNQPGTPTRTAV
# CDK7 (human) = CDK7 (human) (UniProt P50613)
# CDKL2 (human) = CDKL2 (human) (UniProt Q92772)
# [2] = system: KIT (human), P10721 [V559D/T670I]
# RPS6KA4 KD1 (human) = RPS6KA4 KD1 (human) (UniProt O75676)
# Chain of RPS6KA4 KD1 (human) (O75676 whole entry, looked up): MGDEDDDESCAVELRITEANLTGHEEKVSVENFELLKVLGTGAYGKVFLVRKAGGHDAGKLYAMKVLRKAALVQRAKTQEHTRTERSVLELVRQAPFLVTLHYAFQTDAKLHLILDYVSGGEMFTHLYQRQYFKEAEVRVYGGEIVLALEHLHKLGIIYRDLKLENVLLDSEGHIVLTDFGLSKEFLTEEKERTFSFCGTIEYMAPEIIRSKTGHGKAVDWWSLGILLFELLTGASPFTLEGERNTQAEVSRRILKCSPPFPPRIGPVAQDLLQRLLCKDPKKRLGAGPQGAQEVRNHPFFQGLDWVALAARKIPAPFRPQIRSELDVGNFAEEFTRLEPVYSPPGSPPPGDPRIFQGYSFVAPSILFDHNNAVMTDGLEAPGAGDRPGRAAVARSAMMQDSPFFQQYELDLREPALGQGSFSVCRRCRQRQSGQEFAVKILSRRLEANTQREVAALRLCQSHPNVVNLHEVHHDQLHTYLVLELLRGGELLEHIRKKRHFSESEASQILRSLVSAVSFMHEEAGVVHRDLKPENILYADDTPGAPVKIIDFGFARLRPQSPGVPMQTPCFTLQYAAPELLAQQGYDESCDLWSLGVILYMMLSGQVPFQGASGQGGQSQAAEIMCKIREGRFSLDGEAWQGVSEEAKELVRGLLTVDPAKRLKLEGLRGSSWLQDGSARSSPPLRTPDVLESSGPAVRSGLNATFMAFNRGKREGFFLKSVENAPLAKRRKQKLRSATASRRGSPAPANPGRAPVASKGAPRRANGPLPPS
# HCK (human) = HCK (human) (UniProt P08631)
# CAMKK2 (human) = CAMKK2 (human) (UniProt Q96RR4)
# MAPK11 (human) = MAPK11 (human) (UniProt Q15759)
# FRK (human) = FRK (human) (UniProt P42685)
# CDK5 (human) = CDK5 (human) (UniProt Q00535)
# Chain of CDK5 (human) (Q00535 whole entry, looked up): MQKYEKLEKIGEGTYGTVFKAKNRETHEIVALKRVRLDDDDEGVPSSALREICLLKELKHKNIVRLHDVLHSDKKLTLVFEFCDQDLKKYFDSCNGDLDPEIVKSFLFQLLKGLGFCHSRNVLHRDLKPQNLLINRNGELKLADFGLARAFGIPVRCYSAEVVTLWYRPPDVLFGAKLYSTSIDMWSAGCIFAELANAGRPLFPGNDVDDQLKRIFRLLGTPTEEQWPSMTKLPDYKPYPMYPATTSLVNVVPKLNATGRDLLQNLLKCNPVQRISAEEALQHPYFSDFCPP
# HUNK (human) = HUNK (human) (UniProt P57058)
# CSNK1G1 (human) = CSNK1G1 (human) (UniProt Q9HCP0)
# PIP4K2B (human) = PIP4K2B (human) (UniProt P78356)
# MAP2K3 (human) = MAP2K3 (human) (UniProt P46734)
# [3] = system: FLT3 (human), P36888 [N841I]
# HIPK3 (human) = HIPK3 (human) (UniProt Q9H422)
# Chain of HIPK3 (human) (Q9H422 whole entry, looked up): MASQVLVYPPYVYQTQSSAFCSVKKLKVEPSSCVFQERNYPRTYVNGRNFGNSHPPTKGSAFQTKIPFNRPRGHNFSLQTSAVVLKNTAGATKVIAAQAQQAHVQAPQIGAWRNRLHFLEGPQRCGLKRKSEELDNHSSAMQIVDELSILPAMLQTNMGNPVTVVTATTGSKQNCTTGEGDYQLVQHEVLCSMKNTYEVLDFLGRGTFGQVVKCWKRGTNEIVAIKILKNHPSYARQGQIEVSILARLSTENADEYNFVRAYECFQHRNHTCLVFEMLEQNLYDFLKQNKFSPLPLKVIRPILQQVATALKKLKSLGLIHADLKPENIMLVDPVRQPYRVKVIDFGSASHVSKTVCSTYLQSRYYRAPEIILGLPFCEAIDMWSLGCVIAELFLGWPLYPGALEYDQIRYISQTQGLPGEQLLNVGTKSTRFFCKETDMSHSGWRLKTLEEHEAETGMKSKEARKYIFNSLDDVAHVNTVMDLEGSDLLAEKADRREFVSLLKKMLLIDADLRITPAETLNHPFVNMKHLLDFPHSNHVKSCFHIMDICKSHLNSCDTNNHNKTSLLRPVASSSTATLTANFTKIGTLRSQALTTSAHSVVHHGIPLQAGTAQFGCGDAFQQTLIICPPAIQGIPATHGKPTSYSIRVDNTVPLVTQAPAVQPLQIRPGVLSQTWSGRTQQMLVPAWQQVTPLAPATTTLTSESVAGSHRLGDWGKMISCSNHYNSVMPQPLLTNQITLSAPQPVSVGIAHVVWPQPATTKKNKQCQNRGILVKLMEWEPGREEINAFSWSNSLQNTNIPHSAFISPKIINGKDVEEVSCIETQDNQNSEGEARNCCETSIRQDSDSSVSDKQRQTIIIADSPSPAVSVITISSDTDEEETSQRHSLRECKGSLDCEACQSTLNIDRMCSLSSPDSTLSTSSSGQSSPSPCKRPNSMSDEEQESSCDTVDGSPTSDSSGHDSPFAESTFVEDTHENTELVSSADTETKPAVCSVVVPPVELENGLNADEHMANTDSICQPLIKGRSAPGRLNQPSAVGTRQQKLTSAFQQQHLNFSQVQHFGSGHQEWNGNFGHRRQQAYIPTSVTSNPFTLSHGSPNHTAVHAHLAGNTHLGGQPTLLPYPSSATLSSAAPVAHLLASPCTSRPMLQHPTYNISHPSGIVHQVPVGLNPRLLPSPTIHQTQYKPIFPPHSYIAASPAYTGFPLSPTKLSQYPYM
# CIT (human) = CIT (human) (UniProt O14578)
# NUAK2 (human) = NUAK2 (human) (UniProt Q9H093)
# DDR1 (human) = DDR1 (human) (UniProt Q08345)
# MET (human) = MET (human) (UniProt P08581)
# INSRR (human) = INSRR (human) (UniProt P14616)
# CHEK2 (human) = CHEK2 (human) (UniProt O96017)
# PIP4K2C (human) = PIP4K2C (human) (UniProt Q8TBX8)
# Chain of PIP4K2C (human) (Q8TBX8 whole entry, looked up): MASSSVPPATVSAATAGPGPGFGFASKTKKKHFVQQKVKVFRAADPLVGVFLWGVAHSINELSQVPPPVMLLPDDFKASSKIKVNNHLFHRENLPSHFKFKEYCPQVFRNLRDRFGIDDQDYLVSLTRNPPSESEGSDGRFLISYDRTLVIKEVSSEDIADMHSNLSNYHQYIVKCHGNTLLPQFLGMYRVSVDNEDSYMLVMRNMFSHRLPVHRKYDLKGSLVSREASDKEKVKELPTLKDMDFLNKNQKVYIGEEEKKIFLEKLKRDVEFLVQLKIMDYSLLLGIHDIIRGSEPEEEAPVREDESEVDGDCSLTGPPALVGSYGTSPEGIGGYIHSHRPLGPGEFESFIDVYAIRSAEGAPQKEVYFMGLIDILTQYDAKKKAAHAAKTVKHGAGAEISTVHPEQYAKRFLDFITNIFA
# MAP3K5 (human) = MAP3K5 (human) (UniProt Q99683)
# Chain of MAP3K5 (human) (Q99683 whole entry, looked up): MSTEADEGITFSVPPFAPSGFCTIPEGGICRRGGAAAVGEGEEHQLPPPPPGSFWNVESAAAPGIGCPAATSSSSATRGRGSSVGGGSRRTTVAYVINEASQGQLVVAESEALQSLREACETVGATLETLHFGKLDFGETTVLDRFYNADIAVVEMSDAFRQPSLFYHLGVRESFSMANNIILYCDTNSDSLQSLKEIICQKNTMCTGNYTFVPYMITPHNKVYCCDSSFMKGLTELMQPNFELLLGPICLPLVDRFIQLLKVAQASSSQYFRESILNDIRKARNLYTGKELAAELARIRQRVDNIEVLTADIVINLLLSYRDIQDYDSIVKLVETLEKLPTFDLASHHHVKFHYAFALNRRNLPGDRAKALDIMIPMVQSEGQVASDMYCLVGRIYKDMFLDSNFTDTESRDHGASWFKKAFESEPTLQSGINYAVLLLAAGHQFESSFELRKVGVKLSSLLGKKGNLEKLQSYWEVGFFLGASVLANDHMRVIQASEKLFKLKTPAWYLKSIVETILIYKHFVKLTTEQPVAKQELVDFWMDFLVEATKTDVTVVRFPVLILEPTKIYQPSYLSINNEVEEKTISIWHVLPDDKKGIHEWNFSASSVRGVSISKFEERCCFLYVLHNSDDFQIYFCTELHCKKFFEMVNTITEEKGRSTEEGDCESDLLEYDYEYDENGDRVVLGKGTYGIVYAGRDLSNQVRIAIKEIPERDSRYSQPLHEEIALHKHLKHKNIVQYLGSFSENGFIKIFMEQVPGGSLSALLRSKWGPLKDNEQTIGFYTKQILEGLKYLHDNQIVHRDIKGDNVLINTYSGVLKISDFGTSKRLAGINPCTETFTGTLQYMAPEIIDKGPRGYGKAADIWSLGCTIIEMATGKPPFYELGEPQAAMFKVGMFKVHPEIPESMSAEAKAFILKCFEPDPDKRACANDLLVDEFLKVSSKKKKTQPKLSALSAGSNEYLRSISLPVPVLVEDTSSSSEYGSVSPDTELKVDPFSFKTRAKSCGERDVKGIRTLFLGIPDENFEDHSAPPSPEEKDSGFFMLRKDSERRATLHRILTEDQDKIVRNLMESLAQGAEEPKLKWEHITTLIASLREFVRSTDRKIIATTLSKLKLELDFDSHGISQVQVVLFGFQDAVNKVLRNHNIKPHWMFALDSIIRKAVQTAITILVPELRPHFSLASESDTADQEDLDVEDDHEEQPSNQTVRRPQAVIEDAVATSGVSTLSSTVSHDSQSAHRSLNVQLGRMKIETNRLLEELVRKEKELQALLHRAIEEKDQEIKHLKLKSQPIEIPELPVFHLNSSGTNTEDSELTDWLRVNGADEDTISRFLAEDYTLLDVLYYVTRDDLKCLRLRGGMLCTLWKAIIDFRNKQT
# NEK1 (human) = NEK1 (human) (UniProt Q96PY6)
# CAMK1D (human) = CAMK1D (human) (UniProt Q8IU85)
# [4] = system: EGFR (human), P00533 [G719C]
# CPK1 (P.falciparum) = system: CPK1 (P.falciparum)
# ULK1 (human) = ULK1 (human) (UniProt O75385)
# ROS1 (human) = ROS1 (human) (UniProt P08922)
# RPS6KA4 KD2 (human) = RPS6KA4 KD2 (human) (UniProt O75676)
# Chain of RPS6KA4 KD2 (human) (O75676 whole entry, looked up): as the sequence (O75676 whole entry, looked up) above
# Chain of SRC (human) (P12931 whole entry, looked up): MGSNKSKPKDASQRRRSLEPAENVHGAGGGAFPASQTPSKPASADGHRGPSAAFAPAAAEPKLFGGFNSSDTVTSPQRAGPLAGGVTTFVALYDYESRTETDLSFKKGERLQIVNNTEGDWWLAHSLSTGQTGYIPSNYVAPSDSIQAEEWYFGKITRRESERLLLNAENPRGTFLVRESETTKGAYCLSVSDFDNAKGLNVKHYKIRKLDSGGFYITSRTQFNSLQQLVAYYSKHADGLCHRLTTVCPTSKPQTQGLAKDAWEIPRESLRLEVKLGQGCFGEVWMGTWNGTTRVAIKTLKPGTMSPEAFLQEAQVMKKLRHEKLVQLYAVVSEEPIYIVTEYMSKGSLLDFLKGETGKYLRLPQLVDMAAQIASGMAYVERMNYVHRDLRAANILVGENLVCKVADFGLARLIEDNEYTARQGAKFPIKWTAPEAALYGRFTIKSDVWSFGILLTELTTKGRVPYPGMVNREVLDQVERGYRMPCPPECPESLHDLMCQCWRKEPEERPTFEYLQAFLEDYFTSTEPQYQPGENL
smiles,measurement,setting,value
Cc1cc([C@@H](C)Nc2ccccc2C(=O)O)c2nc(N3CCOCC3)cc(=O)n2c1,"kinase still bound, per cent of control",EPHB2 (human),100%
same,"kinase still bound, per cent of control",SRC (human),100%
same,"kinase still bound, per cent of control",PRKX (human),100%
same,"kinase still bound, per cent of control",MYLK4 (human),75%
same,"kinase still bound, per cent of control",AAK1 (human),91%
same,"kinase still bound, per cent of control",RPS6KA1 KD1 (human),67%
same,"kinase still bound, per cent of control",[1],100%
same,"kinase still bound, per cent of control",MAPK10 (human),66%
same,"kinase still bound, per cent of control",BMPR1A (human),79%
same,"kinase still bound, per cent of control",EGFR (human),100%
same,"kinase still bound, per cent of control",PIP5K1A (human),100%
same,"kinase still bound, per cent of control",MAP2K2 (human),98%
same,"kinase still bound, per cent of control",CDK7 (human),90%
same,"kinase still bound, per cent of control",CDKL2 (human),100%
same,"kinase still bound, per cent of control",[2],64%
same,"kinase still bound, per cent of control",RPS6KA4 KD1 (human),93%
same,"kinase still bound, per cent of control",HCK (human),60%
same,"kinase still bound, per cent of control",CAMKK2 (human),72%
same,"kinase still bound, per cent of control",MAPK11 (human),100%
same,"kinase still bound, per cent of control",FRK (human),47%
same,"kinase still bound, per cent of control",CDK5 (human),100%
same,"kinase still bound, per cent of control",HUNK (human),94%
same,"kinase still bound, per cent of control",CSNK1G1 (human),77%
same,"kinase still bound, per cent of control",PIP4K2B (human),84%
same,"kinase still bound, per cent of control",MAP2K3 (human),99%
same,"kinase still bound, per cent of control",[3],26%
same,"kinase still bound, per cent of control",HIPK3 (human),68%
same,"kinase still bound, per cent of control",CIT (human),88%
same,"kinase still bound, per cent of control",NUAK2 (human),100%
same,"kinase still bound, per cent of control",DDR1 (human),81%
same,"kinase still bound, per cent of control",MET (human),95%
same,"kinase still bound, per cent of control",INSRR (human),100%
same,"kinase still bound, per cent of control",CHEK2 (human),100%
same,"kinase still bound, per cent of control",PIP4K2C (human),94%
same,"kinase still bound, per cent of control",MAP3K5 (human),100%
same,"kinase still bound, per cent of control",NEK1 (human),100%
same,"kinase still bound, per cent of control",CAMK1D (human),93%
same,"kinase still bound, per cent of control",[4],100%
same,"kinase still bound, per cent of control",CPK1 (P.falciparum),75%
same,"kinase still bound, per cent of control",ULK1 (human),73%
same,"kinase still bound, per cent of control",ROS1 (human),84%
same,"kinase still bound, per cent of control",RPS6KA4 KD2 (human),83%

# From the kinase profiling compilation of Christmann-Franck et al. (2016)
